The test system of one series is Bcl-2. Kind of series: qRT-PCR gene expression, Bcl-2. In kind it is cell-based, human. To be noted: MCF-7, 7.653 μM, 24 h. Here is the method: Untreated cells served as negative controls. RNA concentration and purity were verified spectrophotometrically prior to cDNA synthesis. Complementary DNA (cDNA) was synthesized from purified RNA using the RT^2 First Strand Kit (Qiagen, Valencia, CA, USA) following the supplied protocol. Quantitative real-time PCR (qRT-PCR) was performed on a Corbett Rotor-Gene 6000 system (Qiagen, USA) using the RT^2 SYBR® Green ROX™ FAST Master Mix (Qiagen). Each 25 μL reaction contained 12.5 μL of master mix, 1 μL of gene-specific primers (RT^2 qPCR Primer Assays, Qiagen), 1 μL of cDNA template, and 10.5 μL of RNase-free water. Gene-specific primers were selected using the PrimerBank database for BAX, BCL2, and TP53, along with GAPDH as the endogenous control (Table S3). Thermal cycling conditions were set as follows: initial enzyme activation at 95 °C for 10 minutes, followed by 40 cycles of denaturation at 95 °C for 15 seconds, and annealing at 60 °C for 30 seconds. Amplification specificity was confirmed by melting curve analysis. Gene expression levels were normalized to GAPDH mRNA as the internal reference, and relative quantification was performed using the ΔΔCt method. […] Statistical analysis was performed using GraphPad Prism software, with p < 0.05 considered statistically significant.[79]

Series [1] is described as follows: Liver histopathology (H&E).
Excerpt: Additionally, liver and kidney tissues were excised from each animal for further evaluation. […] The second portion was fixed in 10% neutral buffered formalin for histopathological examination to assess tissue morphology and damage.[96,97]
Liver and kidney tissues were collected from all experimental groups at the end of the study and immediately fixed in 10% neutral buffered formalin. After fixation, the samples were dehydrated, embedded in paraffin, and sectioned at a thickness of 5 μm using a rotary microtome. […] Histopathological examination of renal tissue focused on identifying acute tubular injury (ATI), characterized by tubular epithelial cell flattening, necrosis, apical vacuolization, and loss of the brush border. These features were assessed using a semi-quantitative scoring system.[110] Hepatic tissue sections were evaluated for the severity of hepatocellular injury using a modified Brunt grading system, which includes assessment of hepatocyte ballooning, necrosis, inflammation, and other degenerative changes.
A further series has as its system MCF-7 cells. Kind of series: Annexin V-FITC/PI apoptosis assay. In kind it is cell-based, human. To be noted: MCF-7, IC50 concentration, 24 h. How it is done:
Apoptotic cell death was quantified using annexin V-FITC and propidium iodide (PI) staining, in accordance with the manufacturer's instructions (BioVision, USA; Cat No. K101-25), with minor protocol adjustments. MCF-7 cells were plated at a density of 2 × 10^5 cells per well in DMEM-containing supplements and incubated overnight at 37 °C in a humidified atmosphere with 5% CO2. […] After treatment, cells were harvested using 0.25% trypsin–EDTA, rinsed twice with ice-cold phosphate-buffered saline (PBS), and resuspended in 500 μL of annexin V binding buffer. To each sample, 5 μL of annexin V-FITC and 5 μL of propidium iodide (PI) were then added for staining. The staining mixture was incubated in the dark for 15 minutes at room temperature. Samples were analyzed on a BD FACSCalibur™ flow cytometer (BD Biosciences, USA). Fluorescence was detected using the FL1 channel (530 nm) for annexin V-FITC and the FL2 channel (585 nm) for PI. Quadrant gating was used to distinguish between viable cells (annexin V^−/PI^−), early apoptotic cells (annexin V^+/PI^−), late apoptotic cells (annexin V^+/PI^+), and necrotic cells (annexin V^−/PI^+).

The next series relates to TNF-α. Kind of series: Serum TNF-α ELISA.
Series [2] is described as follows: Serum liver and kidney function markers (ALT, AST, creatinine, urea).
Description: Blood samples were collected under light ether anesthesia via the retro-orbital venous plexus and centrifuged at 3000 rpm for 10 minutes. The resulting serum was separated and stored at −20 °C for biochemical analysis.
Serum alanine aminotransferase (ALT) and aspartate aminotransferase (AST) levels were measured as indicators of liver function using commercially available assay kits (BioVenic, NY, USA, (AST) Cat. No.: IVEK3681, (ALT) Cat. No.: IVEK3446), in accordance with the manufacturer's instructions. In the ALT assay, the enzyme catalyzes the conversion of alanine to pyruvate, which is then reduced to lactate by lactate dehydrogenase, resulting in the oxidation of NADH to NAD^+. This reaction causes a decrease in absorbance at 340 nm, which is proportional to ALT activity. Similarly, the AST assay is based on the transamination of aspartate to oxaloacetate, which then reacts with NADH in the presence of malate dehydrogenase, leading to a decrease in NADH absorbance at 340 nm. For each assay, 10 μL of serum was added to the respective substrate buffer and incubated at 37 °C for 30 minutes. The change in absorbance was recorded using a microplate reader at 340 nm. Enzymatic activities were calculated and expressed in units per liter (U L^−1). All measurements were performed in triplicate, and results are presented as mean ± SD.[98,99]
Serum creatinine and urea levels were assessed as indicators of renal function using colorimetric assay kits from BioAssay Systems (DICT-500, USA), according to the manufacturers' protocols. Creatinine concentration was determined based on a colorimetric enzymatic reaction. In this assay, creatinine is enzymatically converted to creatine and then to sarcosine, which is oxidized to produce hydrogen peroxide. The resulting hydrogen peroxide reacts with a chromogenic substrate in the presence of peroxidase to generate a colored product, the intensity of which is proportional to the creatinine concentration. Briefly, 10 μL of serum was mixed with 200 μL of working reagent, incubated at 25 °C for 5 minutes, and the absorbance was recorded at 510 nm using a microplate reader. Values were quantified against a standard curve and expressed in mg dL^−1. On the other hand, urea levels were measured based on an enzymatic reaction that produces a chromophore detectable at 340 nm. Specifically, 5 μL of serum was added to 200 μL of the assay reagent and incubated at 37 °C for 10 minutes. Absorbance was measured at 340 nm, and urea concentration was calculated using a standard curve and expressed as mg dL^−1.
In a further series the target is T1, COX-2 (Homo sapiens, UniProt P35354).
T1 construct: purchased BioVision K547-100
T1 sequence (P35354 18-604): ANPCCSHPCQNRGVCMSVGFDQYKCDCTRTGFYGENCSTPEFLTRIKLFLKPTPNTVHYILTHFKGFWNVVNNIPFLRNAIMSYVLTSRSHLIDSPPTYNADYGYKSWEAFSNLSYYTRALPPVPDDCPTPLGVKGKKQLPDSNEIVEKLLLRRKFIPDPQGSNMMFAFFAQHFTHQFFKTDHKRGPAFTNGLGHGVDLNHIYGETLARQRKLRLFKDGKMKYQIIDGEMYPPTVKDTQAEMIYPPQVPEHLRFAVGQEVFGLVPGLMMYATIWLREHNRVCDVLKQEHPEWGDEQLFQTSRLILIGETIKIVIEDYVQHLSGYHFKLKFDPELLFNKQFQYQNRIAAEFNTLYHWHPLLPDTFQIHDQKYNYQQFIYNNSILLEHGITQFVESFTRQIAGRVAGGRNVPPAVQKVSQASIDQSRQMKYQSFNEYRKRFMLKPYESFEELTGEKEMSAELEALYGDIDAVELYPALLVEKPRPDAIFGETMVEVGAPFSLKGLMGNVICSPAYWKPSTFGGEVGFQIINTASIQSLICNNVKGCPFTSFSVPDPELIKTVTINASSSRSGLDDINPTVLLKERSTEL
Kind of series: COX-2 inhibitor screening (fluorometric). It counts as biochemical. How it is done:
COX-1 and COX-2 enzymes were reconstituted in sterile water (110 μL) and kept on ice until use. Arachidonic acid was activated by mixing 5 μL with 5 μL of NaOH, followed by a 10-fold dilution with water and vortexing. A reaction mixture (80 μL per well) was prepared by combining 76 μL of assay buffer, 1 μL of COX probe, 2 μL of 200-fold diluted COX cofactor, and 1 μL of COX-1 or COX-2 enzyme. This mix was added to each well, followed by 10 μL of the prepared arachidonic acid/NaOH solution to initiate the reaction. Fluorescence was recorded at 25 °C using a microplate reader. The percent inhibition was determined by comparing the fluorescence increase in treated wells relative to the enzyme control. IC50 values were calculated from the concentration–response curves using GraphPad Prism.

Structures are written as SMILES. Several values for one entry are separate records, joined by “and”; a condition that tells them apart may be missing. Equal values may be shown once.

As usually defined, the IC50 is the concentration that gives 50% inhibition.

Description for TNF-α: All animals were maintained under conventional laboratory conditions, including a controlled temperature of 22 ± 2 °C and a 12 hour light/dark photoperiod, with continuous access to standard pellet chow and water. On day 11, following the final treatment, ascitic fluid was collected from the peritoneal cavity using heparinized syringes for EAC cell viability and count analysis. Blood samples were collected under light ether anesthesia via the retro-orbital venous plexus and centrifuged at 3000 rpm for 10 minutes. The resulting serum was separated and stored at −20 °C for biochemical analysis.
Briefly, 96-well microplates pre-coated with a TNF-α-specific capture antibody were loaded with standards and serum samples, followed by incubation to allow antigen binding. After washing, a biotin-labeled detection antibody was added, followed by an avidin–HRP conjugate to amplify the signal. The enzymatic reaction was developed using a TMB substrate and stopped with an acidic solution. Absorbance was measured at 450 nm using the ELISA microplate reader. TNF-α concentrations were calculated by plotting sample absorbance values against a standard curve and expressed in pg mL^−1. All measurements were performed in triplicate, and data were presented as mean ± SD.

For the compound `CCOC(=O)/C(C#N)=C/c1ccc(Oc2c(C)c3cc(Br)c(O)c(Br)c3[nH]c2=O)cc1` [Compound 7, ethyl (E)-2-cyano-3-(4-((6,8-dibromo-7-hydroxy-4-methyl-2-oxo-1,2-dihydroquinolin-3-yl)oxy)phenyl)acrylate], the “Bcl-2 expression relative to untreated control” value with Bcl-2 is listed as 0.312 fold. For the same compound, in series [1] (EAC + compound 7, EAC group approximately 45%), the hepatocyte hydropic degeneration result is “around 15%”. In addition, the portal inflammation grade in series [1] (EAC + compound 7, EAC group grade 3) worked out at 2; in series [1] (compound 7 only, no EAC), 2. Also, the liver pathology score in series [1] (EAC + compound 7, EAC group score 7, untreated 0) came to 3; in series [1] (compound 7 only, no EAC, untreated 0) it was 4. Besides, the lobular inflammation grade in series [1] (compound 7 only, no EAC) stood at 1. In the series with MCF-7 cells (control 0.12%), this compound returned a late apoptotic cells of 8.41%. Also, the early apoptotic cells in the series with MCF-7 cells (control 0.37%) is reported as 15.36%. This compound came in with a necrotic cell population in the series with MCF-7 cells (control 2.22%) of 3.57%. The “serum TNF-α” value with TNF-α (EAC + compound 7 (10 mg kg^−1 i.p.), EAC control 156.80 ± 4.71) stood at 56.42 ± 2.01 pg/mL; in the series with TNF-α (compound 7-only control group, no EAC), 29.37 ± 1.33 pg/mL. For the same compound, the serum creatinine was determined as 0.6 ± 0.02 mg/dL in series [2] (EAC + compound 7 (10 mg kg^−1 i.p.), EAC control 1.7 ± 0.04) and 0.5 ± 0.03 mg/dL in series [2] (compound 7-control group, no EAC, untreated 0.5 ± 0.02). In addition, the serum urea in series [2] (EAC + compound 7 (10 mg kg^−1 i.p.), EAC control 94 ± 1.78) stood at 44.83 ± 0.7 mg/dL; in series [2] (compound 7-control group, no EAC, untreated 24.16 ± 1.07), 21.83 ± 0.6 mg/dL. Further, the “serum ALT” value in series [2] (EAC + compound 7 (10 mg kg^−1 i.p.), EAC control 140.66 ± 3.45) was 49.83 ± 1.16 U L^−1; in series [2] (compound 7-control group, no EAC (10 mg kg^−1 i.p.), untreated 27.16 ± 0.94), 22.83 ± 0.6 U L^−1. Also, the “serum AST” value in series [2] (EAC + compound 7 (10 mg kg^−1 i.p.), EAC control 168.33 ± 3.7) was 57.5 ± 1.56 U L^−1; in series [2] (compound 7-control group, no EAC, untreated 41.66 ± 1.3), 37.83 ± 0.94 U L^−1. Also, the “selectivity index (SI), COX-1/COX-2” value at COX-2 was 5.93. Also, on COX-2 (read-out: IC50 toward COX-2), the IC50 is 1260 nM and 1300 nM.
